Results: US20080221052A1, “Modulation of Wrn-Mediated Telomere-Initiated Cell Signaling” (priority 2004, published 2008)
{P} = phosphate

How the values were obtained:
S91 mouse melanoma cells = assay: Melanin content of S91 mouse melanoma cells; assay type: cell-based; settings: 6 days
Experimental: FIG. 4 is a bar graph showing the melanin content (in pg/cell) of cells treated with diluent, pTpT or pTspT.
FIG. 5 is a bar graph showing the melanin content (in pg/cell) of cells treated with diluent, 11 mer-1 or 11 mer-1-S.
Cultures of S91 mouse melanoma cells (100,000 cells/38 cm^2) were treated with 100 μM pTpT or phosphorothioate pTpT (pTspT) (FIG. 4) or 40 μM 11 mer-1 or the phosphorothioate 11 mer-1 (11 mer-1-S) (FIG. 5) for 6 days and were then collected, counted and assayed for melanin content.

S91 cells = assay: UV-induced melanogenesis in S91 cells (melanin content, OD 475 nm); assay type: cell-based, mouse; settings: 100 μM, one week
Text: FIG. 6 is a bar graph showing the melanin content (in pg/cell) of cells that have been sham-treated (no irradiation, no oligonucleotides), or treated with ultraviolet light (UV), or unirradiated but given pTspT, or irradiated with UV and given pTspT.
Duplicate cultures of S91 cells (100,000 cells/39 cm^2) were either sham-irradiated or irradiated with 5 mJ/cm^2 solar-simulated light from a 1 kW xenon arc solar-simulator (XMN 1000-21, Optical Radiation, Azuza, Calif.) metered at 285 5 nm using a research radiometer (model IL1700A, International Light, Newburyport, Mass.). Two sham-irradiated plates were then supplemented with 100 μM pTspT and two irradiated cultures were similarly treated with pTspT. After one week, cells were collected, counted and analyzed for melanin content by dissolving the cell pellets in 1 N NaOH and measuring the optical density at 475 nm. […] However, this response was blocked by the addition of pTspT (FIG. 6). In addition, the constitutive pigmentation of these cells was reduced by the pTspT in the sham-irradiated cultures, similar to the data presented in FIGS. 4 and 5.

DNA-PKCS = assay: Western blot with antibody against ATM phosphoserine 1981 in normal newborn fibroblasts; assay type: cell-based; settings: 40 μM, 4-48 hours
Experimental: The positions of ATM and DNA-PKCS are indicated. Sham and irradiated (10 Gy IR) fibroblasts were included as controls.
Normal newborn fibroblasts were treated with 40 μM T-oligo or an equal volume of diluent for 4, 6, 8, 16, 24 or 48 hours then collected and analyzed by Western blot using an antibody against ATM phosphoserine 1981. […] The phosphorylated protein was shown in subsequent experiments to co-migrate with the catalytic subunit of ATM-related DNA-dependent protein kinase (DNA-PKCS), which would reasonably be expected to bind an antibody raised against the highly homologous ATM protein.

WRN = target: T1, WRN (Homo sapiens, UniProt Q14191); assay: WRN siRNA knock-down and T-oligo response, western blot in normal neonatal fibroblasts; assay type: cell-based; settings: 40 μM T-oligo, 24 or 48 hours, WRN siRNA-treated cells
T1 construct: endogenous in cells; host or cells: normal neonatal fibroblasts
Experimental: Protein level of WRN on the day of T-oligo treatment is indicated at “0 Hrs”. T-oligo (40 μM, T) or diluent (D) were added and cells collected after 24 or 48 hours for western analysis. Control fibroblasts were either sham (IR, −) or irradiated with 10 Gy IR (IR, +) and collected after one hour. The western blot was probed with antibodies, recognizing WRN, p53 phosphoserine 15 or phospho H2AX.
Normal neonatal fibroblasts were treated on 2 consecutive days with 50 ρmol of WRN siRNA or […] of siRNA directed against the control green fluorescent protein (GFP). One day after the second siRNA treatment, representative cultures were collected for western blot analysis to assess the effectiveness of the WRN siRNA in eliminating the protein. Also at this time, duplicate cultures of WRN siRNA-treated or GFP siRNA-treated cultures were given either 40 μM T-oligo (11 mer-1; SEQ ID NO: 2) or an equal amount of diluent. Cells from all conditions were collected one or two days after the addition of T-oligo or diluent and were analyzed by western blot for p53 phosphorylation on serine 15 and phosphorylation of histone H2AX, both well-documented DNA damage responses (Lambert et al., 1998, J Biol Chem 273, 33048-53; Burma et al., 2001, J Biol Chem 276, 42462-7). Also as controls, cell lysates from cells sham-irradiated or irradiated with 10 Gy ionizing radiation (1R) were included. […]

Jurkat cells = assay: FACS analysis of propidium iodide stained Jurkat cells (S phase, sub-G0/G1 apoptosis); assay type: cell-based, human
Experimental: FIGS. 1A-1H show FACS analysis of propidium iodide stained Jurkat cells (immortalized T lymphocytes), treated with diluent (FIGS. 1A and 1E); 40 μM 11 mer-1 pGTTAGGGTTAG (SEQ ID NO: 2) (FIGS. 1B and 1F); 40 μM 11 mer-2 pCTAACCCTAAC (SEQ ID NO: 3) (FIGS. 1C and 11G); 40 μM 11 mer-3 pGATCGATCGAT (SEQ ID NO: 4) (FIGS. 1D and 1H). Jurkat cells were treated with the stated reagents for 48 hours before analysis (FIG. 1A-1D) or 72 hours (FIGS. 1E-1H).
FIGS. 2A-2F are profiles showing the results of fluorescence activated cell sorting, for the following additions to the cells: FIG. 2A, diluent; FIG. 2B, 0.4 μM 11 mer-1; FIG. 2C, 0.4 μM 11 mer-1-S; FIG. 2D, diluent; FIG. 2E, 40 μM 11 mer-1; FIG. 2F, 40 μM 11 mer-1-S.
Oligonucleotides homologous to the telomere overhang repeat sequence (TTAGGG; SEQ ID NO: 1), sequence (11 mer-1: pGTTAGGGTTAG; SEQ ID NO: 2), complementary to this sequence (11 mer-2: pCTAACCCTAAC; SEQ ID NO: 3) and unrelated to the telomere sequence (11 mer-3: pGATCGATCGAT; SEQ ID NO: 4) were added to cultures of Jurkat cells, a line of human T cells reported to undergo apoptosis in response to telomere disruption. Within 48 hours, 50% of the cells treated with 40 μM of SEQ ID NO: 2 had accumulated in the S phase, compared to 25-30% for control cells (p<0.0003, non-paired t-test; see FIGS. 1A-1D), and by 72 hours, 13% of these cells were apoptotic as determined by a sub-G0/G1 DNA content, compared to 2-3% of controls (p<0.007, non-paired t-test; see FIGS. 1E-1H). At 96 hours, 20±3% of the 11 mer-1 treated cells were apoptotic compared with 3-5% of controls (p<0.0001, non-paired t-test). To exclude preferential uptake of the 11 mer-1 as an explanation of its singular effects, Jurkat cells were treated with oligonucleotides labeled on the 3′ end with fluorescein phosphoramidite, then subjected to confocal microscopy and FACS analysis. The fluorescence intensity of the cells was the same after all treatments at 4 hours and 24 hours.
Cultures of Jurkat human T cells were treated with either diluent, 11 mer-1 (SEQ ID NO: 1) or the phosphorothioate 11 mer-1 (11 mer-1-S) for 96 hours, then collected and processed for FACS analysis. Two concentrations of the oligonucleotides were tested, 0.4 μM (FIGS. 2A-2C) and 40 μM (FIGS. 2D-2F).

[1] = tested on: keratinocyte cell line (SSC12F); assay: S-phase arrest by FACS in keratinocyte cell line; assay type: cell-based; settings: 48 hours, 11 mer-1 alone (10 μM per FIG. 3B); diluent control 26%
Experimental: FIGS. 3A-3G are profiles showing the results of fluorescence activated cell sorting, for the following additions to the cells: FIG. 3A, diluent; FIG. 3B, 10 μM 11 mer-1; FIG. 3C, 10 μM 11 mer-1 and 1 μM 11 mer-1-S; FIG. 3D, 10 μM 11 mer-1 and 5 μM 11 mer-1-S; FIG. 3E, 10 μM 11 mer-1 and 10 μM 11 mer-1-S; FIG. 3F, 20 μM 1 mer-1-S; FIG. 3G, 10 μM 11 mer-1-S.
Forty-three percent of the cells were in the S phase, compared to 26% of the control, diluent-treated cells.

p53 serine 37 = assay: Western analysis of p53 phosphorylated on serine 37 in newborn fibroblasts; assay type: cell-based; settings: 40 μM
[2] = tested on: p53, E2F1 transcription factor; assay: Western analysis of p53 and E2F1 in Jurkat cells; assay type: cell-based, human; settings: by 24 hours after addition

T1 sequence (Q14191 whole entry): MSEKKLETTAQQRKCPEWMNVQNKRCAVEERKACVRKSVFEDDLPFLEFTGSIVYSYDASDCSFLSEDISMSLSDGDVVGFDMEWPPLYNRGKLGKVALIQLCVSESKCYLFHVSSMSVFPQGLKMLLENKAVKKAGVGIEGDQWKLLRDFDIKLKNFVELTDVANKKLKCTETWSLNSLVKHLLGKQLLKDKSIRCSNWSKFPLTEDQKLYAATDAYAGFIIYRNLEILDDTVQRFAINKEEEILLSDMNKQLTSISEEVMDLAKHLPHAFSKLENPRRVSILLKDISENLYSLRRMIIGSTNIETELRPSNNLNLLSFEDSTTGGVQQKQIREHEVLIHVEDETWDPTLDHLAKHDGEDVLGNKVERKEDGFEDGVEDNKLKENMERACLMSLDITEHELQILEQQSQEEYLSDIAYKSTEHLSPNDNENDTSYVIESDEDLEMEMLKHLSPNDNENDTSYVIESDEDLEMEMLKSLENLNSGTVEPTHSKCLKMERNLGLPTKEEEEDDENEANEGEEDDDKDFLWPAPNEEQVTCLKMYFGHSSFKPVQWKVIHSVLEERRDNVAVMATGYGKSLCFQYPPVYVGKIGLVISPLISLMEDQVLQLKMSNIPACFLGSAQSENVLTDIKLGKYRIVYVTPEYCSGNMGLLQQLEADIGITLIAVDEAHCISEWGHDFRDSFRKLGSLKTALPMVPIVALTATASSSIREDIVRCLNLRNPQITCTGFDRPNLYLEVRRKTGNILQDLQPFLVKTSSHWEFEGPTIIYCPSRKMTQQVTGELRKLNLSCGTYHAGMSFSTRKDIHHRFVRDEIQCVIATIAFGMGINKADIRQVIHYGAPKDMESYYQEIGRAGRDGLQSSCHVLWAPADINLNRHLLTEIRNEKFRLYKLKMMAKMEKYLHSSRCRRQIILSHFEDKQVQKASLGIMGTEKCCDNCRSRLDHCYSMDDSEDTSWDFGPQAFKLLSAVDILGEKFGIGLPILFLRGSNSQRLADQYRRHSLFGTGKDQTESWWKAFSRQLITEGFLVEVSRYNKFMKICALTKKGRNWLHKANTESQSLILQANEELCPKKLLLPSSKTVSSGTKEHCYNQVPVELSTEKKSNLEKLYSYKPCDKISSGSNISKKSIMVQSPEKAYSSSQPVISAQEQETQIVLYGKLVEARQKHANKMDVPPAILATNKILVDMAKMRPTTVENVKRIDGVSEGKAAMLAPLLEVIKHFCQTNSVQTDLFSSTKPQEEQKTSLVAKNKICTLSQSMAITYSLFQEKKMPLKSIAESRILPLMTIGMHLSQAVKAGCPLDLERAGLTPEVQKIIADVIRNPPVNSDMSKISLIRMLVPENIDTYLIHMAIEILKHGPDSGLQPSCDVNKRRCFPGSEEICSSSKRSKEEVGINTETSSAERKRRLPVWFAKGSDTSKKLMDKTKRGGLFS

| Substance | stimulation of melanogenesis (melanin content) (S91 mouse melanoma cells; 100 μM) | constitutive pigmentation (S91 mouse melanoma cells; 100 μM) | UV-induced doubling of melanin content (S91 cells; 5 mJ/cm^2 solar-simulated light) | constitutive pigmentation (S91 cells; sham-irradiated cultures) | phosphorylation of 450 kDa protein (DNA-PKCS) (DNA-PKCS) | ability to induce phosphorylation of H2AX after WRN knock-down (WRN) | ability to induce phosphorylation of p53 (serine 15) after WRN knock-down (WRN) | effect on exponentially growing cell cycle profile (Jurkat cells; 0.4 μM, 96 hours) | apoptotic cells (sub-G0/G1 DNA content) (Jurkat cells; 40 μM, 72 hours, controls 2-3%) | apoptosis (sub-G0/G1 peak) (Jurkat cells; 40 μM, 96 hours) | cells accumulated in the S phase (Jurkat cells; 40 μM, within 48 hours, control cells 25-30%) | apoptotic cells (Jurkat cells; 96 hours, controls 3-5%) | stimulation of melanogenesis (melanin content) (S91 mouse melanoma cells; 40 μM) | cells in the S phase [1] | phosphorylation of p53 serine 37 (p53 serine 37) | level of the E2F1 transcription factor [2] | p53 level [2] |
| --- | --- | --- | --- | --- | --- | --- | --- | --- | --- | --- | --- | --- | --- | --- | --- | --- | --- |
| pTpT | stimulated melanogenesis |  |  |  |  |  |  |  |  |  |  |  |  |  |  |  |  |
| pTspT | did not | reduced the constitutive pigmentation | blocked | reduced |  |  |  |  |  |  |  |  |  |  |  |  |  |
| pGTTAGGGTTAG (DNA, 5' {P}, backbone not given here) [11 mer-1] |  |  |  |  | leads to phosphorylation | dramatically reduced | dramatically reduced | neither of the oligonucleotides affected | 13% | induced extensive apoptosis | 50% | 20±3% | stimulated melanogenesis | Forty-three | phosphorylated | concomitant increase | increase |
